The source made the active and inactive calls. The calls are words filed in the database; no cut-off is given here.
Legend:
Peritoneal macrophage [1] = test: Antiinflammatory activity against LPS-stimulated mouse peritoneal macrophage assessed as IL-1beta level at 2 uM treated for 3 hrs followed by ATP addition measured after 30 mins by ELISA method relative to control; type: functional; conditions: time 3.5 hrs
Peritoneal macrophage [2] = test: Antiinflammatory activity against LPS-stimulated mouse peritoneal macrophage assessed as IL-6 level at 2 uM treated for 3 hrs followed by ATP addition measured after 30 mins by ELISA method; type: functional, cell-based; conditions: time 3.5 hrs
Peritoneal macrophage [3] = test: Antiinflammatory activity against LPS-stimulated mouse peritoneal macrophage assessed as inhibition of IL-1beta secretion treated for 3 hrs followed by ATP addition measured after 30 mins by ELISA method; type: functional, cell-based
Peritoneal macrophage [4] = test: Antiinflammatory activity against LPS-stimulated mouse peritoneal macrophage assessed as TNF-alpha level at 2 uM treated for 3 hrs followed by ATP addition measured after 30 mins by ELISA method relative to control; type: functional; conditions: time 3.5 hrs
Peritoneal macrophage [5] = test: Cytotoxicity against mouse peritoneal macrophages at 4 uM incubated for 3.5 hrs by MTT assay; type: toxicity, cell-based
Peritoneal macrophage [6] = test: Antiinflammatory activity against LPS-stimulated mouse peritoneal macrophage assessed as IL-6 level at 2 uM treated for 3 hrs followed by ATP addition measured after 30 mins by ELISA method relative to control; type: functional; conditions: time 3.5 hrs
[7] = Aqueous solubility of compound incubated for 24 hrs by HPLC analysis; type: physicochemical; conditions: buffer

Cc1cccc2c3c(ccc12)-c1oc2c(c1C(=O)C3=O)CCN(CCN1CCOCC1)C2
Activity (Peritoneal macrophage [1]): 99%
Activity (Peritoneal macrophage [2]): inactive
IC50 (Peritoneal macrophage [3]): 273 nM
Activity (Peritoneal macrophage [4]): 26%
Activity (Peritoneal macrophage [5]): Non-Toxic

COC(=O)CN1CCc2c(oc3c2C(=O)C(=O)c2c-3ccc3c(C)cccc23)C1
Activity (Peritoneal macrophage [1]): 70%
Activity (Peritoneal macrophage [6]): 6%
Activity (Peritoneal macrophage [4]): 31%
Activity (Peritoneal macrophage [5]): Non-Toxic

CC(C)(O)c1coc(S(=O)(=O)NC(=O)Nc2c3c(cc4c2CCC4)CCC3)c1
Activity (Peritoneal macrophage [1]): 98%
Activity (Peritoneal macrophage [2]): inactive
Activity (Peritoneal macrophage [4]): 12%

COC(=O)CCCN1CCc2c(oc3c2C(=O)C(=O)c2c-3ccc3c(C)cccc23)C1
Activity (Peritoneal macrophage [1]): 67%
Activity (Peritoneal macrophage [6]): 32%
Activity (Peritoneal macrophage [4]): 43%
Activity (Peritoneal macrophage [5]): Non-Toxic

Cc1cccc2c3c(ccc12)-c1oc2c(c1C(=O)C3=O)CCN(CCN1CCN(C)CC1)C2
Activity (Peritoneal macrophage [1]): 61%
Activity (Peritoneal macrophage [2]): inactive
Activity (Peritoneal macrophage [4]): 19%
Activity (Peritoneal macrophage [5]): Non-Toxic

Cc1cccc2c3c(ccc12)-c1oc2c(c1C(=O)C3=O)CCN([C@@H](C)C(=O)N1CCN(C)CC1)C2
Activity (Peritoneal macrophage [1]): 97%
Activity (Peritoneal macrophage [2]): inactive
IC50 (Peritoneal macrophage [3]): 383 nM
Activity (Peritoneal macrophage [4]): 33%
Activity (Peritoneal macrophage [5]): Non-Toxic

COC(=O)[C@H](C)N1CCc2c(oc3c2C(=O)C(=O)c2c-3ccc3c(C)cccc23)C1
Activity (Peritoneal macrophage [1]): 65%
Activity (Peritoneal macrophage [2]): inactive
Activity (Peritoneal macrophage [4]): 25%
Activity (Peritoneal macrophage [5]): Non-Toxic

COC(=O)[C@H](Cc1ccccc1)N1CCc2c(oc3c2C(=O)C(=O)c2c-3ccc3c(C)cccc23)C1
Activity (Peritoneal macrophage [1]): 23%
Activity (Peritoneal macrophage [2]): inactive
Activity (Peritoneal macrophage [4]): 24%
Activity (Peritoneal macrophage [5]): Non-Toxic

Cc1cccc2c3c(ccc12)-c1oc2c(c1C(=O)C3=O)CCN(C)C2
Activity (Peritoneal macrophage [1]): 40%
Activity (Peritoneal macrophage [6]): 18%
Activity (Peritoneal macrophage [4]): 16%
Activity (Peritoneal macrophage [5]): Non-Toxic

COC(=O)CCN1CCc2c(oc3c2C(=O)C(=O)c2c-3ccc3c(C)cccc23)C1
Activity (Peritoneal macrophage [1]): 87%
Activity (Peritoneal macrophage [6]): 34%
Activity (Peritoneal macrophage [4]): 46%
Activity (Peritoneal macrophage [5]): Non-Toxic

Cc1cccc2c3c(ccc12)-c1oc2c(c1C(=O)C3=O)CCN(CCO)C2.Cl
Activity (Peritoneal macrophage [1]): 99%
Activity (Peritoneal macrophage [4]): 22%
Activity (Peritoneal macrophage [5]): Non-Toxic
solubility [7]: 2.45 µg/mL

CCCCN1CCc2c(oc3c2C(=O)C(=O)c2c-3ccc3c(C)cccc23)C1
Activity (Peritoneal macrophage [1]): 38%
Activity (Peritoneal macrophage [2]): inactive
Activity (Peritoneal macrophage [4]): 14%
Activity (Peritoneal macrophage [5]): Non-Toxic

Cc1cccc2c3c(ccc12)-c1oc2c(c1C(=O)C3=O)CCN(CCC(=O)N1CCOCC1)C2
Activity (Peritoneal macrophage [1]): 92%
Activity (Peritoneal macrophage [2]): inactive
Activity (Peritoneal macrophage [4]): 10%
Activity (Peritoneal macrophage [5]): Non-Toxic

Cc1cccc2c3c(ccc12)-c1oc2c(c1C(=O)C3=O)CCN(CCn1ccnc1)C2
Activity (Peritoneal macrophage [1]): 96%
Activity (Peritoneal macrophage [2]): inactive
Activity (Peritoneal macrophage [4]): 29%
Activity (Peritoneal macrophage [5]): Non-Toxic

Cc1cccc2c3c(ccc12)-c1oc2c(c1C(=O)C3=O)CCN(CCCN1CCCC1)C2
Activity (Peritoneal macrophage [1]): 94%
Activity (Peritoneal macrophage [6]): 31%
Activity (Peritoneal macrophage [4]): 13%
Activity (Peritoneal macrophage [5]): Non-Toxic

Cc1cccc2c3c(ccc12)-c1oc2c(c1C(=O)C3=O)CCN(CCS(C)(=O)=O)C2
Activity (Peritoneal macrophage [1]): 90%
Activity (Peritoneal macrophage [2]): inactive
Activity (Peritoneal macrophage [4]): 46%
Activity (Peritoneal macrophage [5]): Non-Toxic

Cc1cccc2c3c(ccc12)-c1oc2c(c1C(=O)C3=O)CCN(CCCN1CCN(C)CC1)C2
Activity (Peritoneal macrophage [1]): 95%
Activity (Peritoneal macrophage [2]): inactive
Activity (Peritoneal macrophage [4]): 51%
Activity (Peritoneal macrophage [5]): Non-Toxic

Cc1cccc2c3c(ccc12)-c1oc2c(c1C(=O)C3=O)CCN(CCCN1CCOCC1)C2.Cl
Activity (Peritoneal macrophage [1]): 91%
Activity (Peritoneal macrophage [6]): 12%
Activity (Peritoneal macrophage [4]): 24%
Activity (Peritoneal macrophage [5]): Non-Toxic
solubility [7]: 11.89 µg/mL

CNC(=O)[C@H](C)N1CCc2c(oc3c2C(=O)C(=O)c2c-3ccc3c(C)cccc23)C1
Activity (Peritoneal macrophage [1]): 96%
Activity (Peritoneal macrophage [2]): inactive
Activity (Peritoneal macrophage [4]): 31%
Activity (Peritoneal macrophage [5]): Non-Toxic

Cc1cccc2c3c(ccc12)-c1oc2c(c1C(=O)C3=O)CCN([C@H](CO)CCCO)C2.Cl
Activity (Peritoneal macrophage [1]): 96%
Activity (Peritoneal macrophage [6]): 6%
Activity (Peritoneal macrophage [4]): 16%
Activity (Peritoneal macrophage [5]): Non-Toxic
solubility [7]: 6.34 µg/mL

Cc1cccc2c3c(ccc12)-c1oc2c(c1C(=O)C3=O)CCN(CCN(C)C)C2
Activity (Peritoneal macrophage [1]): 88%
Activity (Peritoneal macrophage [6]): 3%
Activity (Peritoneal macrophage [4]): 20%
Activity (Peritoneal macrophage [5]): Non-Toxic

Cc1cccc2c3c(ccc12)-c1oc2c(c1C(=O)C3=O)CCN([C@@H](C)C(=O)N1CCOCC1)C2
Activity (Peritoneal macrophage [1]): 98%
Activity (Peritoneal macrophage [2]): inactive
IC50 (Peritoneal macrophage [3]): 2920 nM
Activity (Peritoneal macrophage [4]): 52%
Activity (Peritoneal macrophage [5]): Non-Toxic

COC(=O)CC[C@@H](C(=O)OC)N1CCc2c(oc3c2C(=O)C(=O)c2c-3ccc3c(C)cccc23)C1
Activity (Peritoneal macrophage [1]): 65%
Activity (Peritoneal macrophage [6]): 41%
Activity (Peritoneal macrophage [4]): 58%
Activity (Peritoneal macrophage [5]): Non-Toxic

Cc1cccc2c3c(ccc12)-c1oc2c(c1C(=O)C3=O)CCN(CC(=O)N1CCOCC1)C2
Activity (Peritoneal macrophage [1]): 96%
IC50 (Peritoneal macrophage [3]): 368 nM
Activity (Peritoneal macrophage [6]): 24%
Activity (Peritoneal macrophage [4]): 36%
Activity (Peritoneal macrophage [5]): Non-Toxic

Cc1cccc2c3c(ccc12)-c1oc2c(c1C(=O)C3=O)CCN(CC(=O)N1CCN(C)CC1)C2
Activity (Peritoneal macrophage [1]): 77%
Activity (Peritoneal macrophage [2]): inactive
Activity (Peritoneal macrophage [4]): 35%
Activity (Peritoneal macrophage [5]): Non-Toxic

Cc1cccc2c3c(ccc12)-c1oc2c(c1C(=O)C3=O)CCN(CCCN1CC[C@@H](O)C1)C2
Activity (Peritoneal macrophage [1]): 92%
Activity (Peritoneal macrophage [2]): inactive
Activity (Peritoneal macrophage [4]): 33%
Activity (Peritoneal macrophage [5]): Non-Toxic

Cc1cccc2c3c(ccc12)-c1oc2c(c1C(=O)C3=O)CCNC2
Activity (Peritoneal macrophage [1]): 16%
Activity (Peritoneal macrophage [6]): 13%
Activity (Peritoneal macrophage [4]): 22%
Activity (Peritoneal macrophage [5]): Non-Toxic

CNC(=O)CN1CCc2c(oc3c2C(=O)C(=O)c2c-3ccc3c(C)cccc23)C1
Activity (Peritoneal macrophage [1]): 92%
Activity (Peritoneal macrophage [6]): 19%
Activity (Peritoneal macrophage [4]): 36%
Activity (Peritoneal macrophage [5]): Non-Toxic

Cc1cccc2c3c(ccc12)-c1oc2c(c1C(=O)C3=O)CCN(CCCn1ccnc1)C2
Activity (Peritoneal macrophage [1]): 95%
Activity (Peritoneal macrophage [2]): inactive
Activity (Peritoneal macrophage [4]): 17%
Activity (Peritoneal macrophage [5]): Non-Toxic

Cc1cccc2c3c(ccc12)-c1oc2c(c1C(=O)C3=O)CCN(CCCN(C)C)C2
Activity (Peritoneal macrophage [1]): 95%
Activity (Peritoneal macrophage [6]): 8%
Activity (Peritoneal macrophage [4]): 19%
Activity (Peritoneal macrophage [5]): Non-Toxic

Cc1cccc2c3c(ccc12)-c1oc2c(c1C(=O)C3=O)CCN([C@@H](C)CO)C2
Activity (Peritoneal macrophage [1]): 49%
Activity (Peritoneal macrophage [2]): inactive
Activity (Peritoneal macrophage [4]): 40%
Activity (Peritoneal macrophage [5]): Non-Toxic

Cc1cccc2c3c(ccc12)-c1oc2c(c1C(=O)C3=O)CCN(CC(=O)N(C)C)C2
Activity (Peritoneal macrophage [1]): 71%
Activity (Peritoneal macrophage [6]): 11%
Activity (Peritoneal macrophage [4]): 52%
Activity (Peritoneal macrophage [5]): Non-Toxic

Cc1cccc2c3c(ccc12)-c1oc2c(c1C(=O)C3=O)CCN(CCCN1CCC(N3CCOCC3)CC1)C2
Activity (Peritoneal macrophage [1]): 88%
Activity (Peritoneal macrophage [2]): inactive
Activity (Peritoneal macrophage [4]): 40%
Activity (Peritoneal macrophage [5]): Non-Toxic

Cc1cccc2c3c(ccc12)-c1oc2c(c1C(=O)C3=O)CCN([C@H](CO)Cc1ccccc1)C2
Activity (Peritoneal macrophage [1]): 56%
Activity (Peritoneal macrophage [6]): 9%
Activity (Peritoneal macrophage [4]): 45%
Activity (Peritoneal macrophage [5]): Non-Toxic
